Results: ChEMBL document CHEMBL2040802, “Synthesis and pharmacological activity of N-(2,2-dimethyl-3,4-dihydro-2H-1-benzopyran-4-yl)-4H-1,2,4-benzothiadiazine-3-carboxamides 1,1-dioxides on rat uterus, rat aorta and rat pancreatic β-cells” (Eur J Med Chem, 2012)

How the values were obtained:
[1] = Myorelaxant effect in oxytoxin-induced Wistar rat uterus smooth muscle assessed as residual contractile activity by continuous superfusion of oxytocin at 10 uM; assay type: functional
Aorta = test: Myorelaxant activity in Wistar rat aorta rings assessed as inhibition of KCl-induced contraction; assay type: functional, tissue-based
[2] = Myorelaxant effect in oxytoxin-induced Wistar rat uterus smooth muscle assessed as residual contractile activity by continuous superfusion of oxytocin at 50 uM; assay type: functional
[3] = Myorelaxant effect in oxytoxin-induced Wistar rat uterus smooth muscle assessed as residual contractile activity by continuous superfusion of oxytocin at 100 uM; assay type: functional
[4] = Inhibition of glucose-induced insulin secretion from Wistar rat pancreatic islet assessed as residual insulin release at 50 uM after 90 mins by radiometric analysis; assay type: functional

SMILES | Activity [1] | EC50 (Aorta) | Activity [2] | Activity [3] | Activity [4]
Cc1ccc2c(c1)S(=O)(=O)N=C(C(=O)NC1CC(C)(C)Oc3ccc([N+](=O)[O-])cc31)N2 (centres undefined) | 103.9% | > 30 µM | 94.9% | 90.6% | 75.7%
CC1=Nc2ccc(Cl)cc2S(=O)(=O)N1 [DIAZOXIDE] | 93.8% |  | 76.3% | 67.7% | 28.8%
CC1(C)CC(NC(=O)C2=NS(=O)(=O)c3ccccc3N2)c2cc(F)ccc2O1 (centres undefined) | 123.7% | > 30 µM | 97.9% | 76.8% | 77.3%
CC1(C)CC(NC(=O)C2=NS(=O)(=O)c3cc(Cl)ccc3N2)c2cc([N+](=O)[O-])ccc2O1 (centres undefined) | 97.9% | > 30 µM | 70.9% | 34.7% | 77%
CC1(C)CC(NC(=O)C2=NS(=O)(=O)c3ccccc3N2)c2cc([N+](=O)[O-])ccc2O1 (centres undefined) | 96.8% | > 30 µM | 62.4% | 34.7% | 77.9%
CC1(C)Oc2ccc(C#N)cc2[C@@H](N2CCCC2=O)[C@@H]1O (relative stereo) [LEVCROMAKALIM] |  |  |  |  | 77.2%
CC(N/C(=N\C#N)Nc1ccncc1)C(C)(C)C (centres undefined) [PINACIDIL ANHYDROUS] | 58.1% |  | 35.5% | 38.1% | 92.1%
Cc1ccc2c(c1)S(=O)(=O)N=C(C(=O)NC1CC(C)(C)Oc3ccc(F)cc31)N2 (centres undefined) | 116.6% | > 30 µM | 132.4% | 124.4% | 96.9%
Cc1ccc2c(c1)S(=O)(=O)N=C(C(=O)NC1CC(C)(C)Oc3ccc(Br)cc31)N2 (centres undefined) | 76.8% | > 30 µM | 44.5% | 6.6% | 91.4%
CC1(C)CC(NC(=O)C2=NS(=O)(=O)c3ccccc3N2)c2cc(Br)ccc2O1 (centres undefined) | 60.1% | > 30 µM | 44.3% | 19.9% | 86.7%
